In patent US20230293629A1, “METHODS FOR ATTENUATING RELEASE OF INFLAMMATORY MEDIATORS AND PEPTIDES USEFUL THEREIN” (BIOMARCK PHARMACEUTICALS LTD., priority 2006, published 2023):

Test system: MARCKS phosphorylation in NHBE cells
Test: MARCKS phosphorylation in NHBE cells, radiolabeled immunoprecipitation assay
Assay type: cell-based, human
Details: 100 nM PMA, NHBE cells
Experimental: Radiolabeled Immunoprecipitation Assay—When labeling with [^32P]phosphate, cells were preincubated for 2 h in phosphate-free Dulbecco's modified Eagle's medium containing 0.2% bovine serum albumin and then labeled with 0.1 mCi/ml [^32P]orthophosphate (9000 Ci/mmol, PerkinElmer Life Sciences) for 2 h. For labeling with [^3H]myristic acid or 3H-amino acids, cells were incubated overnight in medium containing 50 μCi/ml [^3H]myristic acid (49 Ci/mmol, PerkinElmer Life Sciences) or 0.2 mCi/ml [^3H]leucine (159 Ci/mmol, PerkinElmer Life Sciences) plus 0.4 mCi/ml [^3H]proline (100 Ci/mmol, PerkinElmer Life Sciences). Following labeling, cells were exposed to stimulatory reagents for 5 min. When an inhibitor was used, cells were preincubated with the inhibitor for 15 min prior to stimulation. At the end of the treatments, cells were lysed in a buffer containing 50 mM Tris-HCl (pH 7.5), 150 mM NaCl, 1 mM EDTA, 10% glycerol, 1% Nonidet P-40, 1 mM phenylmethylsulfonyl fluoride, 1 mM benzamidine, 10 μg/ml pepstatin A, and 10 μg/ml leupeptin. Trichloroacetic acid precipitation and scintillation counting may determine the radiolabeling efficiency in each culture. Immunoprecipitation of MARCKS protein was carried out according to the method of Spizz and Blackshear using cell lysates containing equal counts/min. Spizz et al., J. Biol. Chem. 271, 553-562 (1996). Precipitated proteins were resolved by 8% SDS-polyacrylamide gel electrophoresis and visualized by autoradiography. Anti-human MARCKS antibody (2F12) and nonimmune control antibody (6F6) were used in this assay.
To assess MARCKS or MARCKS-associated protein complexes in different subcellular fractions, radiolabeled and treated cells were scraped into a homogenization buffer (50 mM Tris-HCl (pH 7.5), 10 mM NaCl, 1 mM EDTA, 1 mM phenylmethylsulfonyl fluoride, 1 mM benzamidine, 10 μg/ml pepstatin A, 10 μg/ml leupeptin) and then disrupted by nitrogen cavitation (800 pounds/square inch for 20 min at 4° C.). Cell lysates were centrifuged at 600×g for 10 min at 4° C. to remove nuclei and unbroken cells. Post-nuclear supernatants were separated into membrane and cytosol fractions by ultracentrifugation at 400,000×g for 30 min at 4° C. The membrane pellet was solubilized in the lysis buffer by sonication. Immunoprecipitation was then carried out as described above.

SMILES: CCCCCCCCCCCCCC(=O)O[C@@H]1[C@@H](C)[C@@]2(O)[C@@H](C=C(CO)C[C@]3(O)C(=O)C(C)=C[C@@H]23)[C@@H]2C(C)(C)[C@]12OC(C)=O [PMA, phorbol 12-myristate 13-acetate]
- increase in MARCKS phosphorylation: 3-4 fold
